Results published in BindingDB's records for doi:10.1021/acsmedchemlett.6b00381 (Mossakowski Medical Research Centre Polish Academy of …, 2017).

Biological target: Substance-P receptor (Rattus norvegicus, UniProt P14600)
Assay: ChEBML_1632341
Protocol: Displacement of [Leu-3,4,5-3H(N)]-Substance P from NK1 receptor in rat brain homogenate measured after 60 mins by microbeta scintillation counting analysis

Substance-P receptor, sequence (P14600 whole entry): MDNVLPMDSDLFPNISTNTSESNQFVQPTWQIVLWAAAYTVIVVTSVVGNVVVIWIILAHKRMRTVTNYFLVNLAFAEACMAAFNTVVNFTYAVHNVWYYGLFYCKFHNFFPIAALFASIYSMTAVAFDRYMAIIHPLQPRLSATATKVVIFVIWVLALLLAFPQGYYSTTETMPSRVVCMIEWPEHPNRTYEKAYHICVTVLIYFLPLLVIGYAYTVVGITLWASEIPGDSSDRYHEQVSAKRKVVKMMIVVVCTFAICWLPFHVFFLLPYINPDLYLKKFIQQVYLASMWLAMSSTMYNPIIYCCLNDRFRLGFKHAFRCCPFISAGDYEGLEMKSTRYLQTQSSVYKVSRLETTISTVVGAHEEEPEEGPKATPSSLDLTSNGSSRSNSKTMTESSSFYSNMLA

C[C@@H](NC(=O)[C@@H](N)Cc1ccc(O)cc1)C(=O)NCC(=O)N[C@@H](Cc1ccccc1)C(=O)NN=Cc1cc(C(F)(F)F)cc(C(F)(F)F)c1 gave an IC50 of 4.2 nM.
